Data: PubChem BioAssay AID2060486 (Molecular Pharmacology Branch, DTP, NCI, 2025)

System: IGROV1 complex spheroids (HUVEC, MSC), viability % test/control
Assay: Anticancer human tumor IGROV1 cell line growth inhibition [GQUAD];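 note: spheroids exposed to compounds for 7 days before readout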;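 for viability, T/C: 100% = DMSO vehicle control viability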
Conditions: for IC50: curve of first compound; for viability, T/C: stronger effect = lower value; active = viability on the fitted dose curve at most 10% of control; inactive = the rest
Procedure, shortened: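 Multi-cell-type spheroids of tumor cells with HUVEC and mesenchymal stem cells, treated with drug combinations. Concentrations descend in half-log steps from near clinical Cmax, or from 10 microM where Cmax is unknown; viability read-out.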

[1] = second compound 0.0316 µM, first compound 0.0316 µM
[2] = second compound 0.0316 µM, first compound 0.1 µM
[3] = second compound 0.0316 µM, first compound 0.316 µM
[4] = second compound 0.0316 µM, first compound 1 µM
[5] = second compound 0.0316 µM, first compound 3.16 µM
[6] = second compound 0.0316 µM, first compound 10 µM
[7] = second compound 0.1 µM, first compound 0.0316 µM
[8] = second compound 0.1 µM, first compound 0.1 µM
[9] = second compound 0.1 µM, first compound 0.316 µM
[10] = second compound 0.1 µM, first compound 1 µM
[11] = second compound 0.1 µM, first compound 3.16 µM
[12] = second compound 0.1 µM, first compound 10 µM
[13] = second compound 0.316 µM, first compound 0.0316 µM
[14] = second compound 0.316 µM, first compound 0.1 µM
[15] = second compound 0.316 µM, first compound 0.316 µM
[16] = second compound 0.316 µM, first compound 1 µM
[17] = second compound 0.316 µM, first compound 3.16 µM
[18] = second compound 0.316 µM, first compound 10 µM
[19] = second compound 1 µM, first compound 0.0316 µM
[20] = second compound 1 µM, first compound 0.1 µM
[21] = second compound 1 µM, first compound 0.316 µM
[22] = second compound 1 µM, first compound 1 µM
[23] = second compound 1 µM, first compound 3.16 µM
[24] = second compound 1 µM, first compound 10 µM
[25] = second compound 3.16 µM, first compound 0.0316 µM
[26] = second compound 3.16 µM, first compound 0.1 µM
[27] = second compound 3.16 µM, first compound 0.316 µM
[28] = second compound 3.16 µM, first compound 1 µM
[29] = second compound 3.16 µM, first compound 3.16 µM
[30] = second compound 3.16 µM, first compound 10 µM
[31] = second compound 10 µM, first compound 0.0316 µM
[32] = second compound 10 µM, first compound 0.1 µM
[33] = second compound 10 µM, first compound 0.316 µM
[34] = second compound 10 µM, first compound 1 µM
[35] = second compound 10 µM, first compound 3.16 µM
[36] = second compound 10 µM, first compound 10 µM

C#Cc1c(F)ccc2cc(O)cc(-c3ncc4c(N5CC6CCC(C5)N6)nc(OCC56CCCN5CC(F)C6)nc4c3F)c12 (stereo not drawn) + Cc1cnc(CNC(=O)c2c(=O)c3ccc(N4CCCN(C)CC4)nc3n3c2sc2ccccc23)cn1
2820 nM: IC50 (second compound 0.0316 µM)
inactive: viability, T/C [1] 70% | viability, T/C [2] 67.6% | viability, T/C [3] 58.5% | viability, T/C [4] 56.4% | viability, T/C [5] 47.6% | viability, T/C [6] 45.3% | viability, T/C [7] 40.6% | viability, T/C [8] 41.9% | viability, T/C [9] 36.5% | viability, T/C [10] 27.3% | viability, T/C [11] 35.8% | viability, T/C [12] 17.3% | viability, T/C [13] 21.4% | viability, T/C [14] 21.5% | viability, T/C [15] 20.7% | viability, T/C [16] 24.7% | viability, T/C [17] 18.3% | viability, T/C [18] 15.1% | viability, T/C [19] 16.7% | viability, T/C [20] 16.4% | viability, T/C [21] 11.1% | viability, T/C [22] 13.3% | viability, T/C [23] 14.5% | viability, T/C [24] 7.91%
< 31.6 nM: IC50 (second compound 0.1 µM) | IC50 (second compound 0.316 µM) | IC50 (second compound 1 µM) | IC50 (second compound 3.16 µM) | IC50 (second compound 10 µM)
active: viability, T/C [25] 9.65% | viability, T/C [26] 9.22% | viability, T/C [27] 8.28% | viability, T/C [28] 10.1% | viability, T/C [29] 10% | viability, T/C [30] 6.58% | viability, T/C [31] 7.28% | viability, T/C [32] 7.39% | viability, T/C [33] 9.03% | viability, T/C [34] 8.87% | viability, T/C [35] 8.84% | viability, T/C [36] 7.64%

CC(C)(O)C1CCC(Nc2ccc3ncc(-c4cccc(C(F)(F)F)c4)n3n2)CC1 (stereo not drawn) + Cc1cnc(CNC(=O)c2c(=O)c3ccc(N4CCCN(C)CC4)nc3n3c2sc2ccccc23)cn1
429 nM: IC50 (second compound 0.0316 µM)
< 31.6 nM: IC50 (second compound 0.1 µM) | IC50 (second compound 0.316 µM) | IC50 (second compound 1 µM) | IC50 (second compound 3.16 µM) | IC50 (second compound 10 µM)
active: viability, T/C [12] 10.2% | viability, T/C [24] 7.48% | viability, T/C [27] 10.4% | viability, T/C [28] 10.4% | viability, T/C [29] 7.96% | viability, T/C [30] 1.27% | viability, T/C [32] 9.42% | viability, T/C [33] 9.42% | viability, T/C [34] 5.73% | viability, T/C [35] 8.46% | viability, T/C [36] 0.12%
inactive: viability, T/C [1] 71.3% | viability, T/C [2] 68.4% | viability, T/C [3] 55.7% | viability, T/C [4] 34% | viability, T/C [5] 20.2% | viability, T/C [6] 16.9% | viability, T/C [7] 35.6% | viability, T/C [8] 32.7% | viability, T/C [9] 33.9% | viability, T/C [10] 26% | viability, T/C [11] 14.1% | viability, T/C [13] 24.9% | viability, T/C [14] 25.8% | viability, T/C [15] 17.4% | viability, T/C [16] 20.5% | viability, T/C [17] 14.8% | viability, T/C [18] 11.4% | viability, T/C [19] 17% | viability, T/C [20] 17.6% | viability, T/C [21] 16.2% | viability, T/C [22] 16.5% | viability, T/C [23] 9.63% | viability, T/C [25] 12.5% | viability, T/C [26] 9.36% | viability, T/C [31] 10%

Cc1[nH]c2ccccc2c1CCNCc1ccc(/C=C/C(=O)NO)cc1 + Cc1cnc(CNC(=O)c2c(=O)c3ccc(N4CCCN(C)CC4)nc3n3c2sc2ccccc23)cn1
inactive: viability, T/C (second compound 0.0316 µM, first compound 0.000999 µM) 65.9% | viability, T/C (second compound 0.0316 µM, first compound 0.00316 µM) 65.3% | viability, T/C (second compound 0.0316 µM, first compound 0.00999 µM) 38.7% | viability, T/C [1] 21.5% | viability, T/C (second compound 0.1 µM, first compound 0.000999 µM) 41.6% | viability, T/C (second compound 0.1 µM, first compound 0.00316 µM) 36.1% | viability, T/C (second compound 0.1 µM, first compound 0.00999 µM) 23.9% | viability, T/C [7] 19.6% | viability, T/C (second compound 0.316 µM, first compound 0.000999 µM) 22.5% | viability, T/C (second compound 0.316 µM, first compound 0.00316 µM) 25.8% | viability, T/C (second compound 0.316 µM, first compound 0.00999 µM) 15.5% | viability, T/C [13] 15% | viability, T/C (second compound 1 µM, first compound 0.000999 µM) 15.4% | viability, T/C (second compound 1 µM, first compound 0.00316 µM) 16.3% | viability, T/C (second compound 1 µM, first compound 0.00999 µM) 9.69% | viability, T/C (second compound 3.16 µM, first compound 0.000999 µM) 8.66%
active: viability, T/C (second compound 0.0316 µM, first compound 0.0999 µM) 2.35% | viability, T/C [3] 0.32% | viability, T/C (second compound 0.1 µM, first compound 0.0999 µM) 2.91% | viability, T/C [9] 0.3% | viability, T/C (second compound 0.316 µM, first compound 0.0999 µM) 3.3% | viability, T/C [15] 0.05% | viability, T/C [19] 6.52% | viability, T/C (second compound 1 µM, first compound 0.0999 µM) 1.86% | viability, T/C [21] 0.04% | viability, T/C (second compound 3.16 µM, first compound 0.00316 µM) 10.2% | viability, T/C (second compound 3.16 µM, first compound 0.00999 µM) 9.38% | viability, T/C [25] 6% | viability, T/C (second compound 3.16 µM, first compound 0.0999 µM) 0.07% | viability, T/C [27] 0.07% | viability, T/C (second compound 10 µM, first compound 0.000999 µM) 6.85% | viability, T/C (second compound 10 µM, first compound 0.00316 µM) 7.04% | viability, T/C (second compound 10 µM, first compound 0.00999 µM) 5.72% | viability, T/C [31] 4.82% | viability, T/C (second compound 10 µM, first compound 0.0999 µM) 0.14% | viability, T/C [33] 0.13%
6.26 nM: IC50 (second compound 0.0316 µM)
< 0.999 nM: IC50 (second compound 0.1 µM) | IC50 (second compound 0.316 µM) | IC50 (second compound 1 µM) | IC50 (second compound 3.16 µM) | IC50 (second compound 10 µM)

O=C(NO)c1cnc(N2CCN(S(=O)(=O)c3ccc4ccccc4c3)CC2)nc1 + Cc1cnc(CNC(=O)c2c(=O)c3ccc(N4CCCN(C)CC4)nc3n3c2sc2ccccc23)cn1
active: viability, T/C [3] 4.13% | viability, T/C [4] 0.2% | viability, T/C [5] 0.06% | viability, T/C [6] 0.06% | viability, T/C [8] 10.6% | viability, T/C [9] 2.94% | viability, T/C [10] 0.19% | viability, T/C [11] 0.06% | viability, T/C [12] 0.05% | viability, T/C [14] 9.94% | viability, T/C [15] 2.34% | viability, T/C [16] 0.05% | viability, T/C [17] 0.03% | viability, T/C [18] 0.05% | viability, T/C [19] 8.18% | viability, T/C [20] 8.18% | viability, T/C [21] 1.32% | viability, T/C [22] 0.04% | viability, T/C [23] 0.03% | viability, T/C [24] 0.05% | viability, T/C [25] 5.96% | viability, T/C [26] 4.03% | viability, T/C [27] 0.06% | viability, T/C [28] 0.04% | viability, T/C [29] 0.05% | viability, T/C [30] 0.06% | viability, T/C [31] 6.31% | viability, T/C [32] 6.49% | viability, T/C [33] 0.09% | viability, T/C [34] 0.07% | viability, T/C [35] 0.1% | viability, T/C [36] 0.1%
inactive: viability, T/C [1] 49.6% | viability, T/C [2] 21.8% | viability, T/C [7] 16.4% | viability, T/C [13] 11%
< 31.6 nM: IC50 (second compound 0.0316 µM) | IC50 (second compound 0.1 µM) | IC50 (second compound 0.316 µM) | IC50 (second compound 1 µM) | IC50 (second compound 3.16 µM) | IC50 (second compound 10 µM)
